The assay has as its target T1, hsortilin (Homo sapiens, UniProt Q99523).
T1 construct: Human sortilin (hsortilin) (Ser78-Asn755) with C-terminal 6-His tag; purchased R&D Systems, Inc. (Minneapolis, Minn.)
T1 sequence (Q99523 78-755): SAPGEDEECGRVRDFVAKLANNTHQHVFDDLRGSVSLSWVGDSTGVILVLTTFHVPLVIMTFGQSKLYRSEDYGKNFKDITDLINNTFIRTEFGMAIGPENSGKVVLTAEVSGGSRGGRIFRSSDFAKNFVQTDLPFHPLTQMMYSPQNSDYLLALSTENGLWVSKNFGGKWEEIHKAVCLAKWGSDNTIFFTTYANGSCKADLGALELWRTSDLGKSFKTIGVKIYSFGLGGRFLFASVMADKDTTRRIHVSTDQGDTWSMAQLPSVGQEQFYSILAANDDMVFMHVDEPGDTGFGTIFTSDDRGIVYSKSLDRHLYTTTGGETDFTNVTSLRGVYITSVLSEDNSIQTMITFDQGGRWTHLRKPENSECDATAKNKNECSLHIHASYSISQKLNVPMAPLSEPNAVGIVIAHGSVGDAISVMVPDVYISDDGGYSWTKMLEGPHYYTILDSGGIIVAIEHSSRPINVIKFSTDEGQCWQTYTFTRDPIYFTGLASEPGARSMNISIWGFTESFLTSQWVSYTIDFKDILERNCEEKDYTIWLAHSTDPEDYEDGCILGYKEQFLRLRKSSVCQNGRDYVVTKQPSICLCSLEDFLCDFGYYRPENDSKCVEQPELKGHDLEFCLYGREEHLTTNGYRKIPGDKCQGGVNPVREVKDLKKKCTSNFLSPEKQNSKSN
Nature of the assay: Surface plasmon resonance on hsortilin immobilized on CM7 chips (Example 2). Type of assay: binding. On the procedure:
Surface plasmon resonance (SPR) measurements were performed on a Biacore T200 instrument equipped with two separate CM7 sensor chips, one with about 20,000 response units (RU) and another with about 27,000 RU of hsortilin covalently immobilized. […] For all other SPR injections, regeneration consisted of injections of running buffer alone. GE BIAcore T200 evaluation software version 3.0 (BIAevaluate) was used to analyze and export results. […] PIP3 containing nanodiscs were flowed at 2:1 dilutions to obtain kinetic data fitted using about 27,000 RU CM7 surface. Kinetic fit generated with BIAevaluate and local Rmax using Langmuir 1:1 binding model exported from BIAevaluate to Microsoft Excel 2016 with fit indicated by the black line.
(In general: SPR reads the build-up and loss of mass on a sensor chip optically.)

Residues, ends and D or L forms follow the SMILES beside them.

In the case of `CC[C@H](C)[C@H](NC(=O)[C@H](Cc1ccc(O)cc1)NC(=O)[C@@H]1CCCN1)C(=O)N[C@@H](CC(C)C)C(=O)O` [C-term NT, P—Y-I-L, reference compound] (H-PYIL-OH; N-terminus and C-terminus assumed), where the note is “C-term NT alone, steady state”, the Kd (commonly a measure of binding affinity in units of concentration) was 138 nM. For `CCCC(=O)OC[C@H](COP(=O)(O)O[C@H]1[C@H](O)[C@@H](OP(=O)(O)O)[C@H](OP(=O)(O)O)[C@@H](OP(=O)(O)O)[C@H]1O)OC(=O)CCC` [diC4-PIP3, dibutanoyl PIP3, reference compound], the IC50 (as a rule, the concentration that gives 50% inhibition) (100 nM NT, read-out: IC50 for inhibition of full length NT binding to sortilin) was approximately 750 nM.
